Test results taken from US8318812B2, “Therapeutic agents for the treatment of lymphoid malignancies” (The Ohio State University Research Foundation, priority 2006, dated 2012).

Experiments:
Type in all cases: cell-based, Human
[1] = test system: MEC, Ramos, Raji, 697 and RS4-11 B cell lines; assay: Annexin V/PI viability by flow cytometry in B cell lines; conditions: 0.6-10 uM FTY720; 24 and 48 hours
Experimental: Cells: Blood was obtained from patients with B-cell CLL with informed consent under a protocol approved by the hospital internal review board. All patients examined in this series had immunophenotypically defined CLL as outlined by the modified 96 National Cancer Institute criteria. B-CLL cells were isolated from freshly donated blood using ficoll density gradient centrifugation (Ficoll-Paque Plus, Amershan Biosciences, Piscataway, N.J.). Isolated mononuclear cells were incubated in RPMI 1640 media (Gibco/Invitrogen, Carlsbad, Calif.) supplemented with 10% heat-inactivated fetal bovine serum (FBS, Hyclone Laboratories, Logan, Utah), 2 mM L-glutamine (Invitrogen, Carlsbad, Calif.), and penicillin (100 U/mL)/streptomycin (100 μg/ml) [Sigma-Aldrich, St. Louis] at 37° C. in an atmosphere of 5% CO2. Freshly isolated B-CLL cells were used in all experiments described herein. […]
Analysis of cell viability and apoptosis: The cell viability was carried out by dual staining with Annexin V conjugated to flourescein-isothyocyanate (FITC) and Propidium iodide (PI) as described previously. Briefly, 1×10^6 cells were stained with Annexin V-FITC (BD Pharmingen) and Propidium iodide (BD Pharmingen) for 15 minutes in dark and analyzed by flow cytometry using a Beckman-Coulter EPICS XL cytometer (Beckman-Coulter, Miami, Fla.). […]

PP2A = PP2A activity in lysates of Ramos B cell line
Experimental: PP2A Activity: The protein phosphatase activity of total cellular lysate was determined by measuring the generation of free PO4 from the threonine phosphopeptide using the malachite green-phosphate complex assay as described by the manufacturer (Upstate, Charlottesville, […].). Cell lysates were prepared in a low detergent lysis buffer (1% Nonidet P-40, 10 mM HEPES, 0.5M NaCl, 10% Glycerol, 1 mM PMSF, 5 mM Benzamidine, 10 μg/ml leupeptin). The phosphatase assay was performed in a PP2A-specific reaction buffer (Upstate) using 750 μM phosphopeptide substrate. After 30-min incubation at 30° C. malachite dye was added, and free phosphate was measured by optical density at 650 nm. To avoid variability among different immunoprecipitated samples, the phosphatase activities were normalized with the amount of PP2A immunoprecipitated, as detected and quantified by western blot analysis of each treatment group.
In order to determine if FTY720 induced activation of PP2A enzyme in CD19^+ B cells from CLL patients were treated with 10 uM FTY720 for 0, 1, 2, 3, 4 and 15 hrs and the PP2A activity in the lysates were quantified using a functional assay following immunoprecipitation of PP2A enzyme. As reported previously in other systems, FTY720 induced a consistent 2-3 fold increase in PP2A activation with the peak response observed at 4 hour post treatment (FIG. 6a). […]

Mino cells = assay: Cell cycle analysis by flow cytometry in Mino cells; conditions: compared to vehicle control
Experimental: Deregulated cyclin D1 expression contributes to cell cycle defects in MCL cells. […] Mino cells were treated with FTY720 for 12, 24 and 48 hrs and subjected to cell cycle analysis by flow cytometry. […] This decrease in S phase is entry is further reflected by accumulation of cells in G1 phase of the cell cycle.

ERK1/2 = assay: Western blot of ERK1/2 phosphorylation in Mino cells
Experimental: Binding of FTY720 accelerates homing of peripheral lymphocytes to lymph node and activation of […] leads to extracellular signal-related kinase 1/2 (ERK1/2) phosphorylation. To determine if FTY720 influenced phosphorylation status of ERK-1, Mino cells were treated with FTY720 and the ERK1/2 phosphorylation status was analyzed by westernblot analysis using phospho ERK-1/2 and ERK1/2 antibodies. […] Similar FTY720 induced time dependent phosphorylation of ERK1/2 was also observed in Jeko cell line (Data not shown). FTY720 induced activation Ras-Raf-MAP kinase signaling pathway resulting in activation of serine/threonine kinase may contribute to ERK1/2 phosphorylation. Consistent with hypothesis ERK1/2 phosphorylation has been reported to occur in cells treated with Sphingosie 1-phosphate, that shares structural similarity to FTY72014. The role of FTY720 induced Erk1/2 phosphorylation in either toxicity, deregulation of the proteins such as Cyclin D1 or Akt and/or accumulation cells in G1 with concomitant decrease in S phase remains to be tested. Nevertheless these studies have identified Cyclin D1 and Akt proteins as two potential biomarkers for FTY720 responsiveness in MCL patient cells.

CCCCCCCCc1ccc(CCC(N)(CO)CO)cc1.Cl [FTY720, 2-Amino-2-[2-(4-octylphenyl)ethyl]propane 1,3-diol hydrochloride]
viable cells (Annexin V-/PI-) [1]: dose dependent inhibition of viable cells | earliest time of FTY720 induced PP2A activation (PP2A): 3 h | reduction in cells in S-phase (Mino cells): ~48% | earliest time of ERK1/2 phosphorylation (ERK1/2): 2 h | time of maximal ERK1/2 phosphorylation (ERK1/2): 4 h
